Mortality data for 23 compounds are collected here from patent US9497966B2, “Pesticidal compositions and related methods” (DOW AGROSCIENCES LLC, priority 2013, dated 2016).

The mortality is the percentage killed.

Assay [1] has as its system Green Peach Aphid (Myzus persicae) (GPA) (MYZUPE). The assay can be described thus: Bioassay for Green Peach Aphid, foliar spray on infested cabbage seedlings. Type of assay: in vivo. Particulars: 72 h, 200 ppm foliar spray on cabbage, graded after three days, Abbott-corrected % control, read-out: % Control (or Mortality) rating, GPA. As to the method:
Example A: Bioassays for Green Peach Aphid (Myzus persicae) (GPA) (MYZUPE)
Cabbage seedlings grown in 3-inch pots, with 2-3 small (3-5 cm) true leaves, were used as test substrate. The seedlings were infested with 20-50 GPA (wingless adult and nymph stages) one day prior to chemical application. Four pots with individual seedlings were used for each treatment. Test compounds (2 mg) were dissolved in 2 mL of acetonemethanol (1:1) solvent, forming stock solutions of 1000 ppm test compound. The stock solutions were diluted 5× with 0.025% Tween 20 in H2O to obtain the solution at 200 ppm test compound. A hand-held aspirator-type sprayer was used for spraying a solution to both sides of […] leaves until runoff. Reference plants (solvent check) were sprayed with the diluent only containing 20% by volume of acetonemethanol (1:1) solvent. Treated plants were held in a holding room for three days at approximately 25° C. and ambient relative humidity (RH) prior to grading. Evaluation was conducted by counting the number of live aphids per plant under a microscope. Percent control was measured by using Abbott's correction formula (W. S. Abbott, “A Method of Computing the Effectiveness of an Insecticide,” J. Econ. Entomol. 18 (1925), pp. 265-267) as follows. Corrected % Control=100*(X−Y)/X • where • X=No. of live aphids on solvent check plants and • Y=No. of live aphids on treated plants The results are indicated in the table entitled “TABLE 2. Biological Data for Green Peach Aphid (MYZUPE) and Sweetpotato Whitefly-crawler (WF) (BEMITA)” (See Table Section).

The subject of assay [2] is Sweetpotato Whitefly-Crawler (Bemisia tabaci) (WF) (BEMITA). As to the kind of experiment: Insecticidal test for Sweetpotato Whitefly-Crawler in foliar spray assay on cotton plants. Particulars: 216 h, 200 ppm foliar spray on cotton, graded after 9 days, Abbott-corrected % control, read-out: % Control (or Mortality) rating, WF. It counts as in vivo. As to the method:
Example B: Insecticidal Test for Sweetpotato Whitefly-Crawler (Bemisia tabaci) (WF) (BEMITA) in Foliar Spray Assay
Cotton plants (Gossypium hirsutum) grown in 3-inch pots, with 1 small (4-5 cm) true leaves, were used as test substrate. The plants were infested with 200-400 whitefly eggs 4-5 days prior to chemical application. Four pots with individual plants were used for each treatment. Test compounds (2 mg) were dissolved in 1 mL of acetone solvent, forming stock solutions of 2000 ppm test compound. The stock solutions were diluted 10× with 0.025% Tween 20 in H2O (diluents) to obtain the solution at 200 ppm test compound. A hand-held aspirator-type sprayer was used for spraying a solution to both sides of cotton leaves until runoff. Reference plants (solvent check) were sprayed with the diluent only containing 10% by volume of acetone solvent. Treated plants were held in a holding room for 9 days at approximately 25° C. and ambient relative humidity (RH) prior to grading. Evaluation was conducted by counting the number of live 3-4 nymph stage per plant under a microscope. Percent control was measured by using Abbott's correction formula (W. S. Abbott, “A Method of Computing the Effectiveness of an Insecticide,” J. Econ. Entomol. 18 (1925), pp. 265-267) as follows. Corrected % Control=100*(X−Y)/X • where • X=No. of live nymphs on solvent check plants and • Y=No. of live nymphs on treated plants.
Biological Data for Green Peach Aphid (MYZUPE) and Sweetpotato Whitefly-crawler (WF) (BEMITA)” (See Table Section).

As for `CCON=C(CS)C(=O)N(CC)c1cn(-c2cccnc2)nc1Cl` [Compound F20, N-(3-chloro-1-(pyridin-3-yl)-1H-pyrazol-4-yl)-2-(ethoxyimino)-N-ethyl-3-mercaptopropanamide], the mortality at 200 ppm in assay [1] lay within 80 to 100%; in assay [2], 0 to 80%.

For `CCON=C(CSCC1CC1(F)F)C(=O)N(CC)c1cn(-c2cccnc2)nc1Cl` (stereo not shown) [Compound F11, N-(3-Chloro-1-(pyridin-3-yl)-1H-pyrazol-4-yl)-3-(((2,2-difluorocyclopropyl)methyl)thio)-2-(ethoxyimino)-N-ethylpropanamide], the mortality at 200 ppm in assay [1] and in assay [2] was 80 to 100% in each case.

With `CCON=C(CSC(c1ccccc1)(c1ccccc1)c1ccccc1)C(=O)N(CC)c1cn(-c2cccnc2)nc1Cl` [Compound F12, N-(3-chloro-1-(pyridin-3-yl)-1H-pyrazol-4-yl)-2-(ethoxyimino)-N-ethyl-3-(tritylthio)propanamide], the results for the mortality at 200 ppm in assay [1] and in assay [2] were 0 to 80% and 80 to 100%, respectively.

For `CON=C(CS(=O)(=O)CCC(F)(F)F)C(=O)N(C)c1cn(-c2cccnc2)nc1Cl` [Compound P47, N-(3-chloro-1-(pyridin-3-yl)-1H-pyrazol-4-yl)-2-(methoxyimino)-N-methyl-3-((3,3,3-trifluoropropyl)sulfonyl)propanamide], the mortality at 200 ppm in assay [1] and in assay [2] was 80 to 100% in each case.

`CCN(C(=O)C(CSCCC(F)(F)F)=NOC)c1cn(-c2cccnc2)nc1Cl` [Compound F14, N-(3-chloro-1-(pyridin-3-yl)-1H-pyrazol-4-yl)-N-ethyl-2-(methoxyimino)-3-((3,3,3-trifluoropropyl)thio)propanamide]: the mortality at 200 ppm in assay [1] and in assay [2] was 80 to 100% in each case.

Regarding `C#CCN(C(=O)C(CSCCC(F)(F)F)=NOCC)c1cn(-c2cccnc2)nc1Cl` [Compound F16, N-(3-Chloro-1-(pyridin-3-yl)-1H-pyrazol-4-yl)-2-(ethoxyimino)-N-(prop-2-yn-1-yl)-3-((3,3,3-trifluoropropyl)thio)propanamide], the mortality at 200 ppm in assay [1] and in assay [2] was 80 to 100% in each case.

Turning to `CCN(C(=O)C(CS(=O)(=O)CC1CC1(F)F)=NOC)c1cn(-c2cccnc2)nc1Cl` (stereo not shown) [Compound F3], the mortality at 200 ppm in assay [1] and in assay [2] was 80 to 100% throughout.

Regarding `CCN(C(=O)C(CS(=O)(=O)CCC(F)(F)F)=NOC)c1cn(-c2cccnc2)nc1Cl` [Compound F8, N-(3-Chloro-1-(pyridin-3-yl)-1H-pyrazol-4-yl)-N-ethyl-2-(methoxyimino)-3-((3,3,3-trifluoropropyl)sulfonyl)propanamide], the mortality at 200 ppm in assay [1] and in assay [2] was 80 to 100% throughout.

For the compound `C=CCON=C(CSC(c1ccccc1)(c1ccccc1)c1ccccc1)C(=O)N(CC)c1cn(-c2cccnc2)nc1Cl` [Compound F13, 2-((Allyloxy)imino)-N-(3-chloro-1-(pyridin-3-yl)-1H-pyrazol-4-yl)-N-ethyl-3-(tritylthio)propanamide], the mortality at 200 ppm in assay [1] and in assay [2] was 0 to 80% each time.

For the compound `CCN(C(=O)C(C[S+]([O-])CCC(F)(F)F)=NOC)c1cn(-c2cccnc2)nc1Cl` (stereo not shown) [Compound F18, N-(3-Chloro-1-(pyridin-3-yl)-1H-pyrazol-4-yl)-N-ethyl-2-(methoxyimino)-3-((3,3,3-trifluoropropyl)sulfinyl)propanamide], the mortality at 200 ppm in assay [1] and in assay [2] was 80 to 100% in each case.

Consider `CCON=C(CSCCC(F)(F)F)C(=O)N(CC)c1cn(-c2cccnc2)nc1Cl` [Compound F24, N-(3-chloro-1-(pyridin-3-yl)-1H-pyrazol-4-yl)-2-(ethoxyimino)-N-ethyl-3-((3,3,3-trifluoropropyl)thio)propanamide], for which the mortality at 200 ppm in assay [1] and in assay [2] was 80 to 100% in each case.

As for `CCN(C(=O)C(C[S+]([O-])CC1CC1(F)F)=NOC)c1cn(-c2cccnc2)nc1Cl` (stereo not shown) [Compound F22], the mortality at 200 ppm in assay [1] and in assay [2] was 80 to 100% each time.

On to `C#CCN(C(=O)C(CSCCC(F)(F)F)=NOC)c1cn(-c2cccnc2)nc1Cl` [Compound F21, N-(3-Chloro-1-(pyridin-3-yl)-1H-pyrazol-4-yl)-2-(methoxyimino)-N-(prop-2-yn-1-yl)-3-((3,3,3-trifluoropropyl)thio)propanamide], for which the mortality at 200 ppm in assay [1] and in assay [2] was 80 to 100% each time.

Regarding `C#CCN(C(=O)C(CSCC1CC1(F)F)=NOC)c1cn(-c2cccnc2)nc1Cl` (stereo not shown) [Compound F2, N-(3-Chloro-1-(pyridin-3-yl)-1H-pyrazol-4-yl)-3-(((2,2-difluorocyclopropyl)methyl)thio)-2-(methoxyimino)-N-(prop-2-yn-1-yl)propanamide], the mortality at 200 ppm in assay [1] and in assay [2] was 80 to 100% in each case.

Consider `CCON=C(CSCCCC(F)(F)F)C(=O)N(CC)c1cn(-c2cccnc2)nc1Cl` [Compound F15, N-(3-Chloro-1-(pyridin-3-yl)-1H-pyrazol-4-yl)-2-(ethoxyimino)-N-ethyl-3-((4,4,4-trifluorobutyl)thio)propanamide], for which the mortality at 200 ppm in assay [1] and in assay [2] was 80 to 100% in each case.

As for `C#CCN(C(=O)C(CSC(c1ccccc1)(c1ccccc1)c1ccccc1)=NOC)c1cn(-c2cccnc2)nc1Cl` [Compound F4, N-(3-chloro-1-(pyridin-3-yl)-1H-pyrazol-4-yl)-2-(methoxyimino)-N-(prop-2-yn-1-yl)-3-(tritylthio)propanamide], the mortality at 200 ppm in assay [1] is below 0%; in assay [2] it was 0 to 80%.

As for `CCON=C(CSCC(F)(F)F)C(=O)N(CC)c1cn(-c2cccnc2)nc1Cl` [Compound F17, N-(3-Chloro-1-(pyridin-3-yl)-1H-pyrazol-4-yl)-2-(ethoxyimino)-N-ethyl-3-((2,2,2-trifluoroethyl)thio)propanamide], the mortality at 200 ppm in assay [1] and in assay [2] was 80 to 100% each time.

On to `CON=C(C[S+]([O-])CCC(F)(F)F)C(=O)N(C)c1cn(-c2cccnc2)nc1Cl` (stereo not shown) [Compound P5, N-(3-chloro-1-(pyridin-3-yl)-1H-pyrazol-4-yl)-2-(methoxyimino)-N-methyl-3-((3,3,3-trifluoropropyl)sulfinyl)propanamide], for which the mortality at 200 ppm in assay [1] and in assay [2] was 80 to 100% in each case.

`CCN(C(=O)C(CS)=NOC)c1cn(-c2cccnc2)nc1Cl` [Compound F9, N-(3-Chloro-1-(pyridin-3-yl)-1H-pyrazol-4-yl)-N-ethyl-3-mercapto-2-(methoxyimino)propanamide]: the mortality at 200 ppm in assay [1] lay in the range of 80 to 100%; in assay [2], 0 to 80%.

As for `CCN(C(=O)C(CSCC1CC1(F)F)=NOC)c1cn(-c2cccnc2)nc1Cl` (stereo not shown) [Compound F5], the mortality at 200 ppm in assay [1] and in assay [2] was 80 to 100% each time.

On to `C#CCN(C(=O)C(CS)=NOCC)c1cn(-c2cccnc2)nc1Cl` [Compound F7, N-(3-Chloro-1-(pyridin-3-yl)-1H-pyrazol-4-yl)-2-(ethoxyimino)-3-mercapto-N-(prop-2-yn-1-yl)propanamide], for which the mortality at 200 ppm in assay [1] was 80 to 100%; in assay [2], below 0%.

Turning to `C#CCN(C(=O)C(CSCCCC(F)(F)F)=NOC)c1cn(-c2cccnc2)nc1Cl` [Compound F19, N-(3-Chloro-1-(pyridin-3-yl)-1H-pyrazol-4-yl)-2-(methoxyimino)-N-(prop-2-yn-1-yl)-3-((4,4,4-trifluorobutyl)thio)propanamide], the mortality at 200 ppm in assay [1] and in assay [2] was 80 to 100% each time.

With `CON=C(CSCCC(F)(F)F)C(=O)N(C)c1cn(-c2cccnc2)nc1Cl` [Compound P4, N-(3-chloro-1-(pyridin-3-yl)-1H-pyrazol-4-yl)-2-(methoxyimino)-N-methyl-3-((3,3,3-trifluoropropyl)thio)propanamide], the mortality at 200 ppm in assay [1] and in assay [2] was 80 to 100% each time.
